Test results published in patent publication US8956622B2, “Peptidic antagonists of class III semaphorins/neuropilins complexes” (INSERM—Institut National de la Sante et de la Recherche …, priority 2005, dated 2015).

Key:
[1] = system: cortical axons collapses triggered by Sema3A; test: Cortical axons collapses triggered by Sema3A in neocortex explants; format: cell-based, mouse; details: peptide 10^−8 M, Sema3A 100 ng/ml
Method: The inhibitory axon growth property of Sema 3A is supposed to be linked to its induction capacity of growth cone collapses. To investigate the effect of the pTM-NRP1 peptide on the Sema 3A functional properties, the growth of cortical neurons was analyzed in the presence or not of Sema 3A and of pTM-NRP1 or pTM-NRP1^mut (NRP1 TM with a triple G→V mutation) peptides.
Laminine/Poly-L-Lysine substrates have been made by adding 980 μL of Gey's balanced salt solution (GBSS, SIGMA) to 10 μL laminine (1 mg/ml, SIGMA) and to 10 μL poly-L-Lysine (10 mg/ml, SIGMA). Sterile coverslips have been placed in a big dish and added with substrate (100 μL). Then, ‘sandwiches’ have been prepared by covering each coverslip with a second one. After an incubation for at least 30 min at 37° C. under 5% CO2 in air, ‘sandwiches’ have been opened and each coverslip has been rinsed with deionized water. Explants have been cultured on dried coverslips.
Neocortex fragments prepared from E15 mouse embryos (E1 determined as the first day of embryonic development by detection of vaginal plug) have been transferred on a tissue chopper disk. Tissue have been cut into 200×200 μm by rotating the disk by 90° after the first cut. Cortex cubes have been collected with a spatula and put into culture medium in a Petri dish. Two coverslips with substrate have been placed in a small Petri dish (50 mm diameter, FALCON). After adding 750 μl of culture medium, the coverslips should stay in the incubator for at least 10 minutes. Using a dissecting microscope, forty to fifty cortical explants have been collected in 20 μl culture medium and carefully placed onto the coverslips. After 15 min at room temperature, most explants have adhered to their substrate. 2250 μl of culture medium have been slowly added to each dish. Then, explants cultures have been kept at 37° C. under 5% CO2 in air.
A radial outgrowth could be seen after 18-24 h in culture, and individual fibres and growth cones could have therefore been analyzed. Products tested on growth cones have been directly added in culture medium for 2 h: • purified Sema3A (100 ng/ml) prepared from conditioned medium of HEK293 cells stably expressing Sema3A. The purification was performed by using the anti-Flag system, SIGMA) • pTM-NRP1 (10^−8, 10^−9, 10^−10 and 10^−11 M), • 10^−8M mpTM-NRP1, • 10^−8M pTM-ErbB2w (SEQ ID NO. 18).
After incubation, 4% formaldehyde has been directly added in culture medium (v/v) for 15min. Then the solution has been removed and replaced by 4% formaldehyde for 15 min.

[2] = system: COS-1 cells expressing NRP1 and Plexin-A1; test: COS cellular collapses triggered by Sema3A; format: cell-based; details: peptide 10^−9 M, 1 hour pre-incubation, Sema 3A 4 hours
Method: Nevertheless, the artificial expression of NRP1 and Plexin-A1 in COS cells allows Sema 3A to trigger cellular collapses. To investigate the effect of the pTM-NRP1 peptide on the Sema3A functional properties, the shape of COS cells expressing NRP1 and Plexin-A1 was analyzed in the presence or not of Sema 3A and of pTM-NRP1 or pTM-NRP1^mut peptide.
COS-1 cells have been transfected by 1 μg of pBK-CMV (STRATAGENE) plasmids containing NRP1 and plexin-A1 coding sequences (provided by Pr. PUSCHEL; MUNSTER Universitat, Germany) with LIPOFECTAMINE 2000 (IN VITROGEN) according to the manufacturer's instructions in 6-well plates. Stably COS-1 transfected cells have been selected with 0.7% geneticine. Stably transfected COS-1 cells have been cultured on 12-well plates with previously poly-L-lysine-coated glass coverslips. Cells have been then incubated 1 hour with pTM-NRP1 or pTM-NRP1^mut peptide (10^−9M) at 37° C. The culture medium has been then removed and replaced by conditioned medium of HEK cells stably transfected or not with a construction expressing Sema 3A (100 μl/ml D-MEM) for 4 hours at 37° C. Finally, cells have been fixed with 2% formaldehyde for 30 minutes followed by 15 minutes in formaldehyde 4%. For each condition tested, about 400 cells have been analyzed.

NRP1 [3] = biological target: T1, NRP1 (Homo sapiens, UniProt O14786); test: AP-Sema3A binding to NRP1-expressing COS cells (optical density per cell); details: peptide 10^−9 M, 1 hour pre-incubation
T1 construct: mutations were introduced into the TM domain of a full length NRP1; expressed in transfected cells; host or cells: COS-1 cells, pBK-CMV plasmid (cDNA provided by Pr. Puschel)
Method: NRP1 expressing COS cells were incubated with AP-Sema3A, a fusion protein of Sema3A and the secreted alkaline phosphatase (BAGNARD et al., 1998).
Wild-type COS cells or NRP1-expressing COS cells (COS-NRP1) were cultured on 12-wells plates on poly-L-lysine-coated glass coverslips (0.005 mg/ml). After one-hour incubation with pTM-NRP1 or pTM-NRP1^mut (10^−9M) in serum-free medium at 37° C., the culture medium was replaced by conditioned medium containing alkaline phosphatase-coupled Sema3A (AP-Sema3A; BAGNARD et al., 1998) obtained from AP-Sema3A stably expressing HEK cells for 90 mn. Conditioned medium without semaphorin served as a control (obtained from non-transfected HEK). Cells were washed three times with PBS and fixed in 4% formaldehyde before transfer in a new dish. After three washes in PBS, the plate was warmed for 50 mn at 65° C. Cells were subsequently incubated with 1 ml of alkaline phosphatase substrate (NBT/BCIP, SIGMA) in the dark. After 45 mn, substrate was removed and glass coverslips were rinsed. Pictures were acquired with a conventional microscope and analyzed with AxioVision LE Zeiss software. For each condition tested, about 60 cells were analyzed to determine binding levels as a function of optical density. Statistical analysis was performed by using a Student's t test.

NRP1 [4] = biological target: T2, NRP1 (Rattus norvegicus, UniProt Q9QWJ9); test: AP-Sema3A binding to its receptor NRP1 on C6 glioma cells (luminescence); details: peptide 10^−12 M to 10^−10 M, 1 hour
T2 construct: Rat C6 glioma cells, which express semaphorin receptors; endogenous in cells; host or cells: rat C6 glioma cells
Method: In order to investigate the NRP1 transmembrane domain role in the linkage NRP1-class III semaphorins, the binding of the ligand Sema3A to its receptor NRP1 on glioma cells was measured in the presence or not of the transmembrane domain peptide of NRP1 (pTM-NRP1 peptide; SEQ ID NO. 1) or of a mutated peptide (mpTM-NRP1; SEQ ID NO. 20, […]). These pTM-NRP1 Peptides have been synthesized by automatic peptidic synthesis (Fmoc chemistry, APPLIED SYSTEM), and analyzed by mass spectrometry. Peptides purity has been estimated by RP-HPLC (BECKMAN) as higher than 90%.
Rat C6 glioma cells, which express semaphorin receptors, has been used to determine the binding capacity of AP-Sema3A, a secreted alkaline phosphatase version of Sema 3A (ADAMS et al., 1997, BAGNARD et al., 1998). These cells were grown and plated in MEM medium (GIBCO) with 10% foetal calf serum (PERBIO), glutamine 0.5 mM (GIBCO) and antibiotics: 100 U/ml penicillin and 100 μg/ml streptomycin (SIGMA).
C6 Cells were cultured in 96-well plates and incubated with or without freshly diluted pTM-NRP1 or pTM-NRP1^mut peptides (10^−12 M to 10^−10 M) for 1 hour at 37° C. The culture medium has been then replaced by conditioned medium of HEK cells stably transfected with a construction expressing AP-Sema 3A (ADAMS et al., EMBO J., vol. 16(20), p: 6077-86, 1997; BAGNARD et al., 1998). Conditioned medium from HEK non transfected cells has been used as an internal control. The pTM-NRP1 Peptide has been synthesized by automatic peptidic synthesis (Fmoc chemistry, APPLIED SYSTEM), and analyzed by mass spectrometry. Peptides purity has been estimated by RP-HPLC (BECKMAN) as higher than 90%, the cells have been washed with PBS and incubated with 50 μl of alkaline phosphatase luminescent substrate (AMERSHAM). The luminescence has been read after 15 minutes with MICROLUMAT PLUS system (BERTHOLD TECHNOLOGIES) according to the manufacturer's instructions. Experiments were done 4 times for each peptide.

[5] = system: VEGF165 signalling in C6 cells; test: VEGF165-induced migration of C6 tumour cell aggregates in 3D matrix (plasma clot); format: cell-based; details: VEGF165 50 ng/ml, peptide 10^−8 M
Method: NRP1 is a receptor of VEGF (NEUFELD et al., Adv. Exp. Med. Biol., vol. 515, p: 81-90, 2002). We therefore verified that pTM-NRP1 can antagonize VEGF signalling in C6 cells. To this end, C6 tumour cell aggregates prepared as previously described (see BAGNARD et al., 1998; and NASARRE et al., Neoplasia, vol. 7, p: 180-189, 2005) were grown in the 3D matrix (plasma clot) and treated with VEGF165.

T1 sequence (O14786 22-923): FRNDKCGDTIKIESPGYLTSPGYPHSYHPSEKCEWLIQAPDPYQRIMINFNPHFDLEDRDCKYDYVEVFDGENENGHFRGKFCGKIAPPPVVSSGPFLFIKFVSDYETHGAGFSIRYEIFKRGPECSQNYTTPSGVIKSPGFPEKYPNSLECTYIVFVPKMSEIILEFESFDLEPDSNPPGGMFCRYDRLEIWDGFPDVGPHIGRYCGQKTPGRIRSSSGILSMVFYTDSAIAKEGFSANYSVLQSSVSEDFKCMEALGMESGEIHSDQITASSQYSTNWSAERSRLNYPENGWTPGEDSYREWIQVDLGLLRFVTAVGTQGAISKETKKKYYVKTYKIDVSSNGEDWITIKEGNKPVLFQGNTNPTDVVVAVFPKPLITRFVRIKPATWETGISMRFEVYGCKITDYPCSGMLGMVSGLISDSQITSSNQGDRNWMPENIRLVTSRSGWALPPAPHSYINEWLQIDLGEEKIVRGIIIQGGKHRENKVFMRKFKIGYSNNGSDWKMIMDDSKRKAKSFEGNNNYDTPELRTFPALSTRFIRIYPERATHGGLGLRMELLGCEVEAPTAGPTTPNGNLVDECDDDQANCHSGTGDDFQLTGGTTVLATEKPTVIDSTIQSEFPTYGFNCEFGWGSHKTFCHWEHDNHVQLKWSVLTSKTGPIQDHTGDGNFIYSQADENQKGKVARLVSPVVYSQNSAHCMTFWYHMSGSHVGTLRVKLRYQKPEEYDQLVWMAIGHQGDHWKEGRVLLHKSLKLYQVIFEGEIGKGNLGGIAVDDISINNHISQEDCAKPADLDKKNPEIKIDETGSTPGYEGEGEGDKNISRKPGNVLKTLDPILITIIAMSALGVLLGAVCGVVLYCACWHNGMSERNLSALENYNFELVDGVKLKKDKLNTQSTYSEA

| binding of AP-Sema3A to NRP1-expressing COS cells (NRP1 [3]) | binding of AP-Sema3A to its receptor NRP1 on C6 cells (NRP1 [4]) | Sequence | effect on cortical axons collapses triggered by Sema3A [1] | effect on cellular collapses of COS-1 cells triggered by Sema 3A [2] | VEGF165-dependent C6 cells migration out of aggregates [5] |
| --- | --- | --- | --- | --- | --- |
| did not block | did not block | ILITIIAMSALVVLLVAVCVVVLYRKR [pTM-NRP1^mut, reference compound] | did not block | did not block | not able to block |
| – | – | SIISAVVGILLVVVLGVVFGILI [ErbB2 peptide, reference compound] | no effect | – | – |
